target: SMYD3 (Homo sapiens (Human), UniProt Q9H7B4); assay: SMYD3 biochemical assay (SPA, 3H-SAM methylation of MEKK2 protein substrate); conditions: read-out: SMYD3 Biochem IC50 (μM)*
Method in brief: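 SPA methyltransferase format: tag-cleaved human SMYD3, insect-cell GST-MEKK2 protein substrate, 3H-SAM donor, 30 min RT enzyme–compound preincubation, 100 uM cold SAM quench.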

| SMILES | IC50 |
| --- | --- |
| N[C@H]1CC[C@H](C(=O)N2CCC(NC(=O)c3cc(C4CC4)on3)C(F)(F)C2)CC1 (some centres unmarked) [compound 152, N-(1-((1r,4r)-4-aminocyclohexane-1-carbonyl)-3,3-difluoropiperidin-4-yl)-5-cyclopropylisoxazole-3-carboxamide] | 2.25 µM |
| CC1(NC(=O)c2cc(C3CC3)on2)CCN(C(=O)CC2CCNCC2)CC1 [compound 153, 5-cyclopropyl-N-(4-methyl-1-(2-(piperidin-4-yl)acetyl)piperidin-4-yl)isoxazole-3-carboxamide] | 0.848 µM |
| O=C(NC1CCN(C(=O)CC2CCNCC2)CC1(F)F)c1cc(C2CC2)on1 (centres unmarked) [compound 154, 5-cyclopropyl-N-(3,3-difluoro-1-(2-(piperidin-4-yl)acetyl)piperidin-4-yl)isoxazole-3-carboxamide] | 1.56 µM |
| CC1(C)CN(C(=O)[C@H]2CC[C@H](N)CC2)CCC1NC(=O)c1cc(C2CC2)on1 (some centres unmarked) [compound 155, N-(1-((1r,4r)-4-aminocyclohexane-1-carbonyl)-3,3-dimethylpiperidin-4-yl)-5-cyclopropylisoxazole-3-carboxamide] | 0.575 µM |
| CC1(C)CN(C(=O)CCCN)CCC1NC(=O)c1cc(C2CC2)on1 (centres unmarked) [compound 161, N-(1-(4-aminobutanoyl)-3,3-dimethylpiperidin-4-yl)-5-cyclopropylisoxazole-3-carboxamide] | 1.25 µM |
| N[C@H]1CC[C@H](C(=O)N2CCC(NC(=O)c3cc(C4CC4)on3)C[C@H]2c2ccccc2)CC1 (stereo partly drawn) [compound 162, N-((2S)-1-((1r,4S)-4-aminocyclohexane-1-carbonyl)-2-phenylpiperidin-4-yl)-5-cyclopropylisoxazole-3-carboxamide] | > 10 µM |
| N[C@H]1CC[C@H](C(=O)N2CCC(NC(=O)c3cc(C4CC4)on3)C[C@@H]2c2ccccc2)CC1 (stereo partly drawn) [compound 163, N-((2R)-1-((1r,4R)-4-aminocyclohexane-1-carbonyl)-2-phenylpiperidin-4-yl)-5-cyclopropylisoxazole-3-carboxamide] | 7.17 µM |
| C[C@@H]1CC(NC(=O)c2cc(C3CC3)on2)CCN1C(=O)C(C)(C)C1CCNCC1 (stereo partly drawn) [compound 164, 5-cyclopropyl-N-((2R)-2-methyl-1-(2-methyl-2-(piperidin-4-yl)propanoyl)piperidin-4-yl)isoxazole-3-carboxamide] | 5.91 µM |
| C[C@H]1CC(NC(=O)c2cc(C3CC3)on2)CCN1C(=O)C(C)(C)C1CCNCC1 (stereo partly drawn) [compound 165, 5-cyclopropyl-N-((2S)-2-methyl-1-(2-methyl-2-(piperidin-4-yl)propanoyl)piperidin-4-yl)isoxazole-3-carboxamide] | 4.73 µM |
| C[C@@H]1CC(NC(=O)c2cc(C3CC3)on2)CCN1C(=O)CC1(O)CCNCC1 (stereo partly drawn) [compound 167, 5-cyclopropyl-N-((2R)-1-(2-(4-hydroxypiperidin-4-yl)acetyl)-2-methylpiperidin-4-yl)isoxazole-3-carboxamide] | 0.911 µM |
| CCC1(C(=O)N2CCC(NC(=O)c3cc(C4CC4)on3)C[C@H]2C)CCNCC1 (stereo partly drawn) [compound 168, 5-cyclopropyl-N-((2R)-1-(4-ethylpiperidine-4-carbonyl)-2-methylpiperidin-4-yl)isoxazole-3-carboxamide] | 3.18 µM |
| CCC1(C(=O)N2CCC(NC(=O)c3cc(C4CC4)on3)C[C@@H]2C)CCNCC1 (stereo partly drawn) [compound 169, 5-cyclopropyl-N-((2S)-1-(4-ethylpiperidine-4-carbonyl)-2-methylpiperidin-4-yl)isoxazole-3-carboxamide] | 3.77 µM |
| C[C@@H]1CC(NC(=O)c2cc(C3CC3)on2)CCN1C(=O)C1(F)CCNCC1 (stereo partly drawn) [compound 170, 5-cyclopropyl-N-((2R)-1-(4-fluoropiperidine-4-carbonyl)-2-methylpiperidin-4-yl)isoxazole-3-carboxamide] | 0.677 µM |
| C[C@@H]1C[C@H](NC(=O)c2cc(C3CC3)on2)CCN1C(=O)CCCN [compound 171, N-((2R,4R)-1-(4-aminobutanoyl)-2-methylpiperidin-4-yl)-5-cyclopropylisoxazole-3-carboxamide] | 3.11 µM |
| C[C@H]1CC(NC(=O)c2cc(C3CC3)on2)CCN1C(=O)CC(O)CN (stereo partly drawn) [compound 173, N-((2S)-1-(4-amino-3-hydroxybutanoyl)-2-methylpiperidin-4-yl)-5-cyclopropylisoxazole-3-carboxamide] | 5.26 µM |
| C[C@H]1CC(NC(=O)c2cc(C3CC3)on2)CCN1C(=O)C1CC12CCNCC2 (stereo partly drawn) [compound 179, 5-cyclopropyl-N-((2S)-2-methyl-1-(6-azaspiro[2.5]octane-1-carbonyl)piperidin-4-yl)isoxazole-3-carboxamide] | 1.42 µM |
| C[C@@H]1C[C@@H](NC(=O)c2cc(C3CC3)on2)CCN1S(=O)(=O)Cc1ccccc1 [compound 185, N-((2R,4S)-1-(benzylsulfonyl)-2-methylpiperidin-4-yl)-5-cyclopropylisoxazole-3-carboxamide] | 4.31 µM |
| C[C@H]1C[C@H](NC(=O)c2cc(C3CC3)on2)CCN1S(=O)(=O)CCCN [compound 188, N-((2S,4R)-1-((3-aminopropyl)sulfonyl)-2-methylpiperidin-4-yl)-5-cyclopropylisoxazole-3-carboxamide] | 0.0723 µM |
| N[C@H]1CC[C@H](C(=O)N2C3CCC2CC(NC(=O)c2cc(C4CC4)on2)C3)CC1 (some centres unmarked) [compound 191, N-(8-((1r,4r)-4-aminocyclohexane-1-carbonyl)-8-azabicyclo[3.2.1]octan-3-yl)-5-cyclopropylisoxazole-3-carboxamide] | > 10 µM |
| CCOC(=O)[C@@H]1CC(NC(=O)c2cc(C3CC3)on2)CCN1C(=O)[C@H]1CC[C@H](N)CC1 (stereo partly drawn) [compound 192, ethyl (2S)-1-((1r,4S)-4-aminocyclohexane-1-carbonyl)-4-(5-cyclopropylisoxazole-3-carboxamido)piperidine-2-carboxylate] | 7.08 µM |

Continued, values first:

| IC50 | SMILES |
| --- | --- |
| 0.521 µM | CC1(C)CN(C(=O)CC2CCNCC2)CCC1NC(=O)c1cc(C2CC2)on1 (centres unmarked) [compound 157, 5-cyclopropyl-N-(3,3-dimethyl-1-(2-(piperidin-4-yl)acetyl)piperidin-4-yl)isoxazole-3-carboxamide] |
| 7.34 µM | CC1(NC(=O)c2cc(C3CC3)on2)CCN(C(=O)CCCN)CC1 [compound 158, N-(1-(4-aminobutanoyl)-4-methylpiperidin-4-yl)-5-cyclopropylisoxazole-3-carboxamide] |
| 25.2 µM | CCOC(=O)[C@@H]1CC(NC(=O)c2cc(C3CC3)on2)CCN1C(=O)CCCN (stereo partly drawn) [compound 159, ethyl (2S)-1-(4-aminobutanoyl)-4-(5-cyclopropylisoxazole-3-carboxamido)piperidine-2-carboxylate] |
| 2.23 µM | CCOC(=O)C1CN(C(=O)CCCN)CCC1NC(=O)c1cc(C2CC2)on1 (centres unmarked) [compound 160, ethyl 1-(4-aminobutanoyl)-4-(5-cyclopropylisoxazole-3-carboxamido)piperidine-3-carboxylate] |
| 0.506 µM | CC1CC(CC(=O)N2CCC(NC(=O)c3cc(C4CC4)on3)C[C@H]2C)CCN1 (stereo partly drawn) [compound 166, 5-cyclopropyl-N-((2R)-2-methyl-1-(2-(2-methylpiperidin-4-yl)acetyl)piperidin-4-yl)isoxazole-3-carboxamide] |
| 6.78 µM | C[C@@H]1C[C@H](NC(=O)c2cc(C3CC3)on2)CCN1C(=O)CC(O)CN (stereo partly drawn) [compound 172, N-((2R,4R)-1-(4-amino-3-hydroxybutanoyl)-2-methylpiperidin-4-yl)-5-cyclopropylisoxazole-3-carboxamide] |
| 0.728 µM | C[C@@H]1CC(NC(=O)c2cc(C3CC3)on2)CCN1C(=O)[C@H]1CCC[C@H](N)C1 (stereo partly drawn) [compound 174, N-((2R)-1-((1S,3S)-3-aminocyclohexane-1-carbonyl)-2-methylpiperidin-4-yl)-5-cyclopropylisoxazole-3-carboxamide] |
| 0.624 µM | C[C@H]1CC(NC(=O)c2cc(C3CC3)on2)CCN1C(=O)CCC1CCNC1 (stereo partly drawn) [compound 176, 5-cyclopropyl-N-((2S)-2-methyl-1-(3-(pyrrolidin-3-yl)propanoyl)piperidin-4-yl)isoxazole-3-carboxamide] |
| > 10 µM | C[C@H]1CC(NC(=O)c2cc(C3CC3)on2)CCN1C(=O)C1CNCC(O)C1 (stereo partly drawn) [compound 177, 5-cyclopropyl-N-((2S)-1-(5-hydroxypiperidine-3-carbonyl)-2-methylpiperidin-4-yl)isoxazole-3-carboxamide] |
| 2.02 µM | C[C@H]1CC(NC(=O)c2cc(C3CC3)on2)CCN1C(=O)C1CC2(CCNC2)C1 (stereo partly drawn) [compound 178, 5-cyclopropyl-N-((2S)-2-methyl-1-(6-azaspiro[3.4]octane-2-carbonyl)piperidin-4-yl)isoxazole-3-carboxamide] |
| 0.953 µM | C[C@@H]1CC(NC(=O)c2cc(C3CC3)on2)CCN1C(=O)CCC1CCNC1 (stereo partly drawn) [compound 180, 5-cyclopropyl-N-((2R)-2-methyl-1-(3-(pyrrolidin-3-yl)propanoyl)piperidin-4-yl)isoxazole-3-carboxamide] |
| 4.79 µM | N[C@H]1CC[C@@H](C(=O)N2CCC(NC(=O)c3cc(C4CC4)on3)CC2)C1 [compound 182, N-(1-((1R,3S)-3-aminocyclopentane-1-carbonyl)piperidin-4-yl)-5-cyclopropylisoxazole-3-carboxamide] |
| 2.67 µM | C[C@@H]1C[C@@H](NC(=O)c2cc(C3CC3)on2)CCN1C(=O)CCCCN [compound 184, N-((2R,4S)-1-(5-aminopentanoyl)-2-methylpiperidin-4-yl)-5-cyclopropylisoxazole-3-carboxamide] |
| > 10 µM | C[C@@H]1C[C@@H](NC(=O)c2cc(C3CC3)on2)CCN1S(=O)(=O)CC(F)(F)F [compound 186, 5-cyclopropyl-N-((2R,4S)-2-methyl-1-((2,2,2-trifluoroethyl)sulfonyl)piperidin-4-yl)isoxazole-3-carboxamide] |
| 0.352 µM | CC[C@@H]1CN(C(=O)[C@H]2CC[C@H](N)CC2)CC[C@@H]1NC(=O)c1cc(C2CC2)on1 [compound 190, N-((3R,4S)-1-((1r,4R)-4-aminocyclohexane-1-carbonyl)-3-ethylpiperidin-4-yl)-5-cyclopropylisoxazole-3-carboxamide] |

From US10577363B2, “Substituted piperidine compounds” (EPIZYME, INC., priority 2014, dated 2020)
